The source made the active and inactive calls. No cut-off for these calls is given here.
Columns and labels:
[1] = system: MCF7; assay: Cytotoxicity against human MCF7 cells expressing HER2 assessed as reduction of cell viability at 10 uM after 48 hrs CellTiter-Glo assay; assay type: functional
[2] = system: MCF7; assay: Cytotoxicity against human MCF7 cells expressing pcDNA3 assessed as reduction of cell viability after 48 hrs CellTiter-Glo assay; assay type: functional, cell-based; conditions: MCF7, 48 h
[3] = system: MCF7; assay: Cytotoxicity against human MCF7 cells expressing HER2delta16 assessed as reduction of cell viability after 48 hrs CellTiter-Glo assay; assay type: functional, cell-based; conditions: MCF7, 48 h
[4] = target: T1, Receptor tyrosine-protein kinase erbB-2 (Homo sapiens, UniProt P04626); assay: Inhibition of HER2 (unknown origin) by ADP-Glo assay
T1 sequence (P04626 whole entry): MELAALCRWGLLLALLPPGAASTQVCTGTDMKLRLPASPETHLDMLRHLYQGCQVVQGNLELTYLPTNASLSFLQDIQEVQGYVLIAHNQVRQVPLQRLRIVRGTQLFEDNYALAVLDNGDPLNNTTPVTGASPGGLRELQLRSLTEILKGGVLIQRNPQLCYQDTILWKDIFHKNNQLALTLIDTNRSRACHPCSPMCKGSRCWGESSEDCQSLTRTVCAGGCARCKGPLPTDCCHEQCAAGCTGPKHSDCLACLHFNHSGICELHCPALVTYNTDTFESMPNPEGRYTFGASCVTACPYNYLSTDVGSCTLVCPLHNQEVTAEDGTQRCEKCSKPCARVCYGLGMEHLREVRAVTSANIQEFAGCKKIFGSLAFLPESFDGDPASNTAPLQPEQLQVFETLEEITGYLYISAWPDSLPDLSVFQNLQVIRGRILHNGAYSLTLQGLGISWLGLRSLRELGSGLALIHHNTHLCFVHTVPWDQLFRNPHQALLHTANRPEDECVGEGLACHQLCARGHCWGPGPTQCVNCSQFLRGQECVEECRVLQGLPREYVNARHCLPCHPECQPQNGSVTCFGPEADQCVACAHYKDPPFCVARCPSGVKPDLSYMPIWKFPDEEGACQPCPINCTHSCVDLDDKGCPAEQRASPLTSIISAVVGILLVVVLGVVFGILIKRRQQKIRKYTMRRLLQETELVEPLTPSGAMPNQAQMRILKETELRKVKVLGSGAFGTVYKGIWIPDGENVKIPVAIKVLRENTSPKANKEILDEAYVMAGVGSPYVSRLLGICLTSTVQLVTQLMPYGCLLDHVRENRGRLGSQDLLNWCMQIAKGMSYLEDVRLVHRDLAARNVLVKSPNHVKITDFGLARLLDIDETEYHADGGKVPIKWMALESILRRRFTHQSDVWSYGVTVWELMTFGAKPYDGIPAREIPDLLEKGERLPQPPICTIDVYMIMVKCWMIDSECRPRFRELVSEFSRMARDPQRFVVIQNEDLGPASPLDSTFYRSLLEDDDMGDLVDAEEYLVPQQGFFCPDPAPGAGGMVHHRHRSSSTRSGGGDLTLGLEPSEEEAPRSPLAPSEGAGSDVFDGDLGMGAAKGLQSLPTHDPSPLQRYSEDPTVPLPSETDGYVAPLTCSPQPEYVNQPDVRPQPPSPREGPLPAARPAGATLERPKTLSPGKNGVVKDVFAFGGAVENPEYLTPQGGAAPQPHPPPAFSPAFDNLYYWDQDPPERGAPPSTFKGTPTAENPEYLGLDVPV

[5] = system: MCF7; assay: Inhibition of HER2 delta16 mutant autophosphorylation at Y1248 in human MCF7 cells at 10 uM after 2 hrs by Western blotting; assay type: cell-based
[6] = system: MCF7; assay: Cytotoxicity against human MCF7 cells expressing HER2delta16 assessed as reduction of cell viability at 10 uM after 48 hrs CellTiter-Glo assay; assay type: functional
[7] = target: T1, Receptor tyrosine-protein kinase erbB-2; assay: Inhibition of HER2 autophosphorylation at Y1248 in human MCF7 cells at 10 uM after 2 hrs by Western blotting; assay type: cell-based
[8] = system: MCF7; assay: Cytotoxicity against human MCF7 cells expressing HER2 assessed as reduction of cell viability after 48 hrs CellTiter-Glo assay; assay type: functional, cell-based; conditions: MCF7, 48 h
[9] = system: MCF7; assay: Cytotoxicity against human MCF7 cells expressing pcDNA3 assessed as reduction of cell viability at 10 uM after 48 hrs CellTiter-Glo assay; assay type: functional
[10] = target: T1, Receptor tyrosine-protein kinase erbB-2; assay: Inhibition of HER2 autophosphorylation at Y1248 in human MCF7 cells expressing pcDNA3 at 10 uM after 2 hrs by Western blotting; assay type: cell-based

`O=C1C2=C(C(=O)c3c(O)ccc(O)c31)[C@@H](O)[C@@H](O)[C@@H](O)C2` was tested, and the Activity [1] was >90%, the IC50 [2] was 0.47 µM and the IC50 [3] was 0.91 µM. For the same compound, the IC50 [4] was 10.8 µM, the inhibition [5] was “Active” and the Activity [6] was >90%. For the same compound, the inhibition [7] was “Active”, the IC50 [8] was 0.87 µM and the Activity [9] was >90%. For the same compound, the inhibition [10] was “Active”.

In the case of `CC1=CC(=O)c2c(O)cccc2C1=O` [PLUMBAGIN], the Activity [1] is reported as >90%, the IC50 [2] is reported as 3.35 µM and the IC50 [3] is reported as 5.1 µM. For the same compound, the IC50 [4] was 30.8 µM, the inhibition [5] was “Active” and the Activity [6] was >90%. For the same compound, the inhibition [7] was “Active”, the IC50 [8] was 2.84 µM and the Activity [9] was >90%. The inhibition [10] was “Active”.

For `CC(=O)Oc1ccc(O)c2c1C(=O)C=CC2=O`, the inhibition [5] was “inactive”, the inhibition [7] was “inactive” and the inhibition [10] was “inactive”.

With `CS(=O)(=O)CCNCc1ccc(-c2ccc3ncnc(Nc4ccc(OCc5cccc(F)c5)c(Cl)c4)c3c2)o1` [LAPATINIB] the Activity [1] was <50%, the IC50 [2] was 15.7 µM and the IC50 [3] was 19.2 µM. The inhibition [5] was “Active”, the Activity [6] was <50% and the inhibition [7] was “Active”. The IC50 [8] was 15.8 µM, the Activity [9] was <50% and the inhibition [10] was “Active”.

With `O=C1C(CO)=C(CO)C(=O)c2c(O)ccc(O)c21` the Activity [1] was >90%, the IC50 [2] was 0.5 µM and the IC50 [3] was 0.93 µM. The IC50 [4] was 11.4 µM, the inhibition [5] was “Active” and the Activity [6] was >90%. For the same compound, the inhibition [7] was “Active”, the IC50 [8] was 0.82 µM and the Activity [9] was >90%. For the same compound, the inhibition [10] was “Active”.
